# Source: patent US7482456B2, “8-(3-Biaryl)phenylquinoline phosphodiesterase-4 inhibitors” (Merck Frosst Canada, priority 2003, dated 2009)
# Biological target: T1, human recombinant phosphodiesterase IVa (met-248) (Homo sapiens, UniProt P27815)
# T1 construct: human recombinant phosphodiesterase IVa (met-248); made in house; host or cells: baculovirus/Sf-9
# Assay: SPA based PDE activity assay
# Format: biochemical
# Conditions: 100 nM cAMP; purified GST fusion protein of human recombinant PDE IVa (met-248), baculovirus/Sf-9
# Description: Compounds which inhibit the hydrolysis of cAMP to AMP by the type-IV cAMP-specific phosphodiesterases were screened in a 96-well plate format as follows:
# In a 96 well-plate at 30° C. was added the test compound (dissolved in 2 μL DMSO), […] of substrate buffer containing [2,8-^3H] adenosine 3′,5′-cyclic phosphate (cAMP, 100 nM to 50 μM), 10 mM MgCl2, 1 mM EDTA, 50 mM Tris, pH 7.5. The reaction was initiated by the addition of […] of human recombinant PDE4 (the amount was controlled so that ˜10% product was formed in 10 min.). The reaction was stopped after 10 min. by the addition of 1 mg of PDE-SPA beads (Amersham Pharmacia Biotech, Inc., Piscataway, N.J.). The product AMP generated was quantified on a Wallac Microbeta® 96-well plate counter (EG&G Wallac Co., Gaithersburg, Md.). The signal in the absence of enzyme was defined as the background. 100% activity was defined as the signal detected in the presence of enzyme and DMSO with the background subtracted. Percentage of inhibition was calculated accordingly. IC50 value was approximated with a non-linear regression fit using the standard 4-parameter/multiple binding sites equation from a ten point titration.
# T1 sequence (P27815 248-886 limits assumed): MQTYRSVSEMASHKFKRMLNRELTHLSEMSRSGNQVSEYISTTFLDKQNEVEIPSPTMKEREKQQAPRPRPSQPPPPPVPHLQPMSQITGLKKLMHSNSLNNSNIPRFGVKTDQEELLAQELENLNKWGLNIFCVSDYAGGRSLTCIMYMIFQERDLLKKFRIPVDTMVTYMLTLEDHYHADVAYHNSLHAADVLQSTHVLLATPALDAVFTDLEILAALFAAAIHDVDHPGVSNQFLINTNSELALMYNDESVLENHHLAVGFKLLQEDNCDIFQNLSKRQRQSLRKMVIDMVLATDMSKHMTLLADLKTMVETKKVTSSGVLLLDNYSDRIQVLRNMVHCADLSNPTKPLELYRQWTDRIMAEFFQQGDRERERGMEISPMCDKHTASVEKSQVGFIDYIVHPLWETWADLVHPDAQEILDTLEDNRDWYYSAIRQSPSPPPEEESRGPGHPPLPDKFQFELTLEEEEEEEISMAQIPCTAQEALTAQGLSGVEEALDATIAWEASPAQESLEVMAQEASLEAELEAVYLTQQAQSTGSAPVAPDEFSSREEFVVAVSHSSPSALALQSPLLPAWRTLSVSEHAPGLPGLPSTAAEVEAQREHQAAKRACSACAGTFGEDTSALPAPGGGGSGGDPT
row,Compound,IC50 [nM]
1,"CC(C)(c1cc(-c2cccc(-c3sc(-c4cccc(Cl)c4)nc3-c3ccc(S(C)(=O)=O)cc3)c2)c2ncccc2c1)S(C)(=O)=O [Example 1, 8-(3-{2-(3-chlorophenyl)-4-[4-(methylsulfonyl)phenyl]-1,3-thiazol-5-yl}phenyl)-6-[1-methyl-1-(methylsulfonyl)ethyl]quinoline]",0.3
2,"CC(C)(O)c1cccc(-c2nc(-c3ccc(F)c(Cl)c3)c(-c3cccc(-c4cc(C(C)(C)S(C)(=O)=O)cc5cccnc45)c3)s2)c1 [Example 88, 2-{3-[4-(3-chloro-4-fluorophenyl)-5-(3-{6-[1-methyl-1-(methylsulfonyl)ethyl]quinolin-8-yl}phenyl)-1,3-thiazol-2-yl]phenyl}propan-2-ol]",1.6
3,CC(C)(c1cc(-c2cccc(-c3sc(-c4cccc(S(C)(=O)=O)c4)nc3-c3ccc(S(C)(=O)=O)cc3)c2)c2ncccc2c1)S(C)(=O)=O [Example 41],1
4,"CC(C)(O)c1ccc(-c2nc(-c3ccc(S(C)(=O)=O)cc3)c(-c3cccc(-c4cc(C(C)(C)S(C)(=O)=O)cc5cccnc45)c3)s2)cc1 [Example 157, 2-(4-{5-(3-{6-[1-methyl-1-(methylsulfonyl)ethyl]quinolin-8-yl}phenyl)-4-[4-(methylsulfonyl)phenyl]-1,3-thiazol-2-yl}phenyl)propan-2-ol]",1.7
5,"CC(C)(O)c1nc(-c2cccc(-c3cc(C(C)(C)S(C)(=O)=O)cc4cccnc34)c2)c(-c2ccc(S(C)(=O)=O)cc2)s1 [Example 78, 2-{4-(3-{6-[1-methyl-1-(methylsulfonyl)ethyl]quinolin-8-yl}phenyl)-5-[4-(methylsulfonyl)phenyl]-1,3-thiazol-2-yl}propan-2-ol]",0.4
6,"CC(C)(O)c1nc(-c2cccc(-c3cc(C(C)(C)S(C)(=O)=O)cc4cccnc34)c2)c(-c2ccc(Cl)cc2)s1 [Example 94, 2-[5-(4-chlorophenyl)-4-(3-{6-[1-methyl-1-(methylsulfonyl)ethyl]quinolin-8-yl}phenyl)-1,3-thiazol-2-yl]propan-2-ol]",4.3
7,"CC(C)(O)c1cccc(-c2nc(-c3ccc(S(C)(=O)=O)cc3)c(-c3cccc(-c4cc(C(C)(C)S(C)(=O)=O)cc5cccnc45)c3)s2)c1 [Example 69, 2-(3-{5-(3-{6-[1-methyl-1-(methylsulfonyl)ethyl]quinolin-8-yl}phenyl)-4-[4-(methylsulfonyl)phenyl]-1,3-thiazol-2-yl}phenyl)propan-2-ol]",0.6
8,"CC(O)(c1ccc(Cl)cc1)c1nc(-c2cccc(-c3cc(C(C)(C)S(C)(=O)=O)cc4cccnc34)c2)c(-c2ccc(S(C)(=O)=O)cc2)s1 (centres unmarked) [Example 82, 1-(4-chlorophenyl)-1-{4-(3-{6-[1-methyl-1-(methylsulfonyl)ethyl]quinolin-8-yl}phenyl)-5-[4-(methylsulfonyl)phenyl]-1,3-thiazol-2-yl}ethanol]",3.1
9,"Cn1nnc(-c2cc(-c3cccc(-c4cc(C(C)(C)S(C)(=O)=O)cc5cccnc45)c3)c[n+]([O-])c2)n1 [Example 115, 6-[1-methyl-1-(methylsulfonyl)ethyl]-8-{3-[5-(2-methyl-2H-tetraazol-5-yl)-1-oxidopyridin-3-yl]phenyl}quinoline]",2.2
10,"CC(C)(O)c1nc(-c2ccc(S(C)(=O)=O)cc2)c(-c2cccc(-c3cc(C(=O)NC4CC4)cc4cccnc34)c2)s1 [Example 167, N-cyclopropyl-8-(3-{2-(1-hydroxy-1-methylethyl)-4-[4-(methylsulfonyl)phenyl]-1,3-thiazol-5-yl}phenyl)quinoline-6-carboxamide]",0.4
11,"Cc1noc(-c2cc(-c3cccc(-c4cc(C(C)(C)S(C)(=O)=O)cc5cccnc45)c3)c[n+]([O-])c2)n1 [Example 100, 6-[1-methyl-1-(methylsulfonyl)ethyl]-8-{3-[5-(3-methyl-1,2,4-oxadiazol-5-yl)-1-oxidopyridin-3-yl]phenyl}quinoline]",4.1
